Common to all, as to experiment: NCI-60 cell line screen, 48 h
Experiment [1] relates to SK-OV-3 ovarian.
Experiment [2] relates to KM12 colon.
For experiment [3], the system named is T-47D breast.
The test system of experiment [4] is HOP-92 NSCLC.
Experiment [5] deals with NCI-H460 lung.
In experiment [6] the test system is 786-0 renal.
The subject of experiment [7] is HCT-116 colon.
The subject of experiment [8] is NCI-H522 lung.
In experiment [9] the test system is PC-3 prostate.
Experiment [10] has as its system RXF 393 renal.
Experiment [11] relates to CAKI-1 renal.
The test system of experiment [12] is SW-620 colon.
Experiment [13] relates to LOX IMVI melanoma.
The subject of experiment [14] is HL-60(TB) leukemia.
Experiment [15] concerns OVCAR-4 ovarian.
Experiment [16] deals with TK-10 renal.
The test system of experiment [17] is UACC-257 melanoma.
Experiment [18] relates to OVCAR-5 ovarian.
In experiment [19] the test system is NCI/ADR-RES ovarian.
The test system of experiment [20] is K-562 leukemia.

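Cultured in 96-well plates, cells were exposed to test compound for 48 hours across five concentrations. TGI: concentration producing complete growth inhibition.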 Some results are limits rather than exact numbers.

Consider `N=C1/C(=C/c2ccco2)C(=O)N=C2SC=NN12`, for which the TGI in experiment [1], in experiment [2], in experiment [3], in [4], in [5] and in experiment [6] was > 100 µM in each case. Moreover, the TGI in [7], in experiment [8], in experiment [9], in experiment [10], in experiment [11] and in experiment [12] was > 100 µM in each case. Further, the TGI in [13], in [14], in experiment [15], in experiment [16], in experiment [17] and in experiment [18] was > 100 µM throughout. In addition, the TGI in [19] and in experiment [20] was > 100 µM in each case.

Turning to `CC(=O)NC1C(O)C(O)C(CO)OC1n1nc(SCc2ccccc2)c(=O)[nH]c1=O` (stereo not given), the TGI in experiment [1], in [2], in experiment [3], in experiment [4], in experiment [5] and in [6] was > 100 µM throughout. Also, the TGI in experiment [7], in [8], in experiment [9], in experiment [10], in [11] and in experiment [12] was > 100 µM each time. Further, the TGI in [13], in experiment [14], in [15], in [16], in [17] and in experiment [18] was > 100 µM throughout. Also, the TGI in [19] and in experiment [20] was > 100 µM in each case.

Turning to `CC[C@]1(Cc2ccc(OC)c(OC)c2)C=[N+]([O-])O[C@H](OC2CCCCC2c2ccccc2)[C@@H]1OC(C)=O` (stereo not given in full), the TGI in experiment [1], in [2], in experiment [3], in [4], in [5] and in experiment [6] was > 100 µM throughout. Also, the TGI in experiment [7] is > 100 µM; in experiment [8], > 100 µM; in experiment [9], > 100 µM; in [10] it was 94.1 µM; in experiment [11], 56.8 µM; in experiment [12], > 100 µM. Further, the TGI in experiment [13] was > 100 µM; in [14], 40.9 µM; in experiment [15], > 100 µM; in experiment [16], > 100 µM; in experiment [17] it was > 100 µM; in [18], > 100 µM. In addition, the TGI in experiment [19] and in [20] was > 100 µM each time.

Consider `C[C@]12CCC(=O)C=C1CC[C@@H]1[C@@H]2CC[C@]2(C)C(=O)/C(=C/c3ccncc3)C[C@@H]12`, for which the TGI in [1] came out at 56.7 µM; in experiment [2] it was 38.3 µM; in [3], 66 µM; in [4], 42.8 µM; in experiment [5], 29.7 µM; in [6] it was 31.3 µM. The TGI in experiment [7] was 23 µM; in experiment [8] it was 33.8 µM; in [9], 25.6 µM; in experiment [10], 31.4 µM; in experiment [11] it was 43.7 µM; in experiment [12] it was > 100 µM. The TGI in [13] was determined as 30.8 µM; in experiment [14], 31.8 µM; in [15] it was 55.1 µM; in experiment [16] it was 38.5 µM; in [17], 28.6 µM; in [18] it was 34.2 µM. The TGI in [19] and in experiment [20] was > 100 µM throughout.

For the compound `Cc1cc(C)c(-n2c(C)c(C)c(C#N)c2N)c(C)c1`, the TGI in [1] is > 100 µM; in [2], > 100 µM; in experiment [3], > 100 µM; in experiment [4], 74.4 µM; in experiment [5], 78.6 µM; in [6], > 100 µM. For the same compound, the TGI in experiment [7] was 48.9 µM; in [8], 57.4 µM; in experiment [9] it was 89 µM; in experiment [10], 94.8 µM; in experiment [11] it was > 100 µM; in experiment [12], > 100 µM. In addition, the TGI was 40.8 µM in [13]; 37 µM in experiment [14]; > 100 µM in experiment [15]; > 100 µM in experiment [16]; 60.8 µM in experiment [17]; > 100 µM in experiment [18]. Also, the values for the TGI in experiment [19] and in experiment [20] were > 100 µM and 78.5 µM, respectively.

`CSC1=C(C(=O)N(COCC[Si](C)(C)C)c2ccccc2Br)CCC(C(C)(C)C)C1` (stereo not given): the TGI in experiment [1] is > 100 µM; in [2], 42.2 µM; in [3], 34.3 µM; in experiment [4], 45.8 µM; in experiment [5], 44.1 µM; in experiment [6] it was 26.2 µM. Besides, the TGI is 18.3 µM in [7]; 24.6 µM in [8]; > 100 µM in experiment [9]; 23.1 µM in experiment [10]; 18.1 µM in experiment [11]; 41 µM in experiment [12]. In addition, the TGI was 29.2 µM in experiment [13]; 11.8 µM in experiment [14]; > 100 µM in experiment [15]; > 100 µM in experiment [16]; 47.8 µM in experiment [17]; 28.7 µM in experiment [18]. Further, the TGI in experiment [19] is > 100 µM; in [20], 29.1 µM.
